What is called IC50 is the concentration needed to halve the response being measured. Low readings indicate greater potency in that assay, high ones weaker potency in that assay.

In one test the test system is A-431. The experiment in a line: Cytotoxicity against human A431 cells after 48 hrs by MTT assay. The format is functional, cell-based. The note with it: A-431, 48 h. (Tetrazolium assays rely on reduction of a dye to a coloured formazan, in cell work by metabolically active cells.)
A further test has as its system HepG2. Description: Cytotoxicity against human HepG2 cells after 48 hrs by MTT assay. The note with it: HepG2, 48 h. Format: functional, cell-based.
The subject of test [1] is HL-60. Description: Cytotoxicity against human HL60 cells after 48 hrs by MTT assay. Format: functional, cell-based. To be noted: HL-60, 48 h.
Test [2] has as its system HL-60. Description: Ratio of cisplatin IC50 to compound IC50 for human HL60 cells. The format is functional.

Converted amounts (≈) assume the structure as drawn.

Regarding `COC1=CC(=O)C2(OC2C)C(O)=C1C(=O)/C=C/c1ccccc1` (configuration not stated) [LITSEAONE A], the IC50 in the test on A-431 stood at 11.1 µg/mL (≈ 35.5 µM); with HepG2 it was 23 µg/mL (≈ 73.6 µM); with HL-60 [1] it was 6.1 µg/mL (≈ 19.5 µM). For the same compound, the “Ratio IC50” value with HL-60 [2] is listed as 2.1.

As for `COc1cc(O)c(C(=O)/C=C/c2ccccc2)c2c1OC(C)O2` (configuration not stated) [LITSEAONE B], the results for the IC50 in the test on A-431, with HepG2 and with HL-60 [1] were 13.9 µg/mL (≈ 44.5 µM), 21.5 µg/mL (≈ 68.8 µM) and 10.2 µg/mL (≈ 32.7 µM), respectively.

The record behind these values is ChEMBL document CHEMBL1921747, “Novel cytotoxic chalcones from Litsea rubescens and Litsea pedunculata” (Bioorg Med Chem Lett, 2011).
